≈ marks a conversion by molar mass, not a printed value. Where two headings read alike, the source gives them in different places. Where a SMILES comes first, the peptide text is derived from it.
Legend:
[1] = tested on: Burkholderia cenocepacia (K56-2); conditions: 20 h
Bacillus subtilis (2597) = conditions: 2597, 20 h
[2] = tested on: Burkholderia cenocepacia (J2315); conditions: 20 h
[3] = tested on: Pseudomonas fluorescens (MF37); conditions: 20 h
Bacillus subtilis (PY79) = conditions: PY79, 20 h
[4] = tested on: Pseudomonas putida (KT2440)
[5] = tested on: Escherichia coli ATCC25922; conditions: ATCC25922, 20 h
[6] = tested on: Bacillus circulans (LSPQ3543); conditions: 20 h
[7] = tested on: Bacillus amyloliquefaciens (LMG22478); conditions: LMG22478, 20 h
[8] = relative to PACAP38; cited from earlier work
[9] = tested on: Staphylococcus aureus (Newman); conditions: 20 h
[10] = tested on: Pseudomonas aeruginosa (PA14); conditions: PA14, 20 h
DPP-IV = tested on: DPP-IV; set-up: method as in PMID 18353507; conditions: cited from earlier work
[11] = tested on: Pseudomonas aeruginosa (ATCC33350-Sero-2); conditions: ATCC33350, 20 h
Escherichia coli (JM109) = test: MIC, CLSI microdilution; format: cell-based; conditions: MHB, 37 °C, 20h, OD read-out, at least triplicate
Experimental: Assays were performed according to the CLSI microdilution method. Briefly, the bacterial strains were inoculated and allowed to reach an OD600 of 0.08–0.13 prior to dilution to 10^6 CFU/mL in Mueller-Hinton broth (MHB). A bacterial suspension (50 μL) was then added to each well of a 96-well microplate containing serially diluted peptide solutions (50 μL in MHB) and incubated at 37 °C for 20h. A well containing sterilized medium was used as a sterility control and another well containing no added peptide served as a growth control.

[12] = tested on: Escherichia coli (O157 :H7); conditions: CLSI microdilution, MHB, 37 °C, 20h, OD read-out; at least triplicate
[13] = tested on: Actinobacillus pleuropneumoniae (4074); conditions: 20 h
[14] = tested on: Bacillus cereus (ATCC11778); conditions: ATCC11778, 20 h
Bacillus velezensis = conditions: 20 h
[15] = tested on: Burkholderia thailendensis (ATCC700388); conditions: CLSI microdilution, MHB, 37 °C, 20h, OD read-out; at least triplicate
[16] = tested on: Serratia marcescens (ATCC14756); conditions: ATCC14756, 20 h
[17] = tested on: Burkholderia cenocepacia (CEP0511 Gvar3b); conditions: CLSI microdilution, MHB, 37 °C, 20h, OD read-out; at least triplicate
[18] = tested on: Staphylococcus aureus (ATCC6538#P); conditions: ATCC6538, 20 h
[19] = tested on: Burkholderia cenocepacia (LMG18829); conditions: LMG18829, 20 h
[20] = tested on: Burkholderia cenocepacia (LMG19240); conditions: CLSI microdilution, MHB, 37 °C, 20h, OD read-out; at least triplicate

Row | Compound | MIC, Burkholderia cenocepacia (K56-2) [1] [µg/mL] | MIC, Bacillus subtilis (2597) (Bacillus subtilis (2597)) [µg/mL] | MIC, Burkholderia cenocepacia (J2315) [2] [µg/mL] | MIC, Pseudomonas fluorescens (MF37) [3] [µg/mL] | MIC, Bacillus subtilis (PY79) (Bacillus subtilis (PY79)) [µg/mL] | MIC, Escherichia coli ATCC25922 [5] [µg/mL] | MIC, Bacillus circulans (LSPQ3543) [6] [µg/mL] | MIC, Bacillus amyloliquefaciens [7] [µg/mL] | Metabolic stability in human plasma [8] | MIC, Staphylococcus aureus (Newman) [9] [µg/mL] | MIC, Pseudomonas aeruginosa (PA14) [10] [µg/mL] | Metabolic stability against DPP-IV (DPP-IV) | MIC, Pseudomonas aeruginosa (ATCC33350-Sero-2) [11] [µg/mL] | MIC, Escherichia coli (JM109) (Escherichia coli (JM109)) [µg/mL] | MIC, Escherichia coli (O157 :H7) [12] [µg/mL] | MIC, Actinobacillus pleuropneumoniae [13] [µg/mL] | MIC, Bacillus cereus (ATCC11778) [14] [µg/mL] | MIC, Bacillus velezensis (Bacillus velezensis) [µg/mL] | MIC, Burkholderia thailendensis (ATCC700388) [15] [µg/mL] | MIC, Serratia marcescens (ATCC14756) [16] [µg/mL] | also measured
1 | CC[C@H](C)[C@H](NC(=O)CNC(=O)[C@H](CC(=O)O)NC(=O)[C@H](CO)NC(=O)[C@@H](N)Cc1c[nH]cn1)C(=O)N[C@@H](Cc1ccccc1)C(=O)N[C@H](C(=O)N[C@@H](CC(=O)O)C(=O)N[C@@H](CO)C(=O)N[C@@H](Cc1ccc(O)cc1)C(=O)N[C@@H](CO)C(=O)N[C@@H](CCCNC(=N)N)C(=O)N[C@@H](Cc1ccc(O)cc1)C(=O)N[C@@H](CCCNC(=N)N)C(=O)N[C@@H](CCCCN)C(=O)N[C@@H](CCC(N)=O)C(=O)N[C@@H](CCSC)C(=O)N[C@@H](C)C(=O)N[C@H](C(=O)N[C@@H](CCCCN)C(=O)N[C@@H](C)C(=O)N[C@@H](Cc1ccc(O)cc1)C(=O)N[C@@H](CC(C)C)C(=O)N[C@@H](C)C(=O)N[C@@H](C)C(=O)N[C@H](C(=O)N[C@@H](CC(C)C)C(=O)NCC(=O)N[C@@H](CCCCN)C(=O)N[C@@H](CCCNC(=N)N)C(=O)N[C@@H](Cc1ccc(O)cc1)C(=O)N[C@@H](CCCCN)C(=O)N[C@@H](CCC(N)=O)C(=O)N[C@@H](CCCNC(=N)N)C(=O)N[C@H](C(=O)N[C@@H](CCCCN)C(=O)N[C@@H](CC(N)=O)C(=O)N[C@@H](CCCCN)C(N)=O)C(C)C)C(C)C)C(C)C)[C@@H](C)O [compound 5, [Ala^21]PACAP38] (H-HSDGIFTDSYSRYRKQMAVKAYLAAVLGKRYKQRVKNK-NH2) | >200 | 56 (≈ 12.5 µM) | 20 (≈ 4.47 µM) | >200 | 42 (≈ 9.38 µM) | >200 | 84 (≈ 18.8 µM) | 20 (≈ 4.47 µM) | improved metabolic stability | >200 | >200 | improved metabolic stability | >200 | 112 (≈ 25 µM) | >200 | >200 | >200 | 168 (≈ 37.5 µM) | >200 | >200 | MIC, Pseudomonas putida (KT2440) ([4]; 20 h): 186 µg/mL (≈ 41.5 µM); MIC, Burkholderia cenocepacia (CEP0511 Gvar3b) [17]: >200 µg/mL; MIC, Staphylococcus aureus (ATCC6538#P) [18]: >200 µg/mL; MIC, Burkholderia cenocepacia (LMG18829) [19]: >200 µg/mL; MIC, Burkholderia cenocepacia (LMG19240) [20]: >200 µg/mL
2 | CC[C@H](C)[C@H](NC(=O)CNC(=O)[C@H](CC(=O)O)NC(=O)[C@H](CO)NC(=O)[C@@H](N)Cc1c[nH]cn1)C(=O)N[C@@H](Cc1ccccc1)C(=O)N[C@H](C(=O)N[C@@H](CC(=O)O)C(=O)N[C@@H](CO)C(=O)N[C@@H](Cc1ccc(O)cc1)C(=O)N[C@@H](CO)C(=O)N[C@@H](CCCNC(=N)N)C(=O)N[C@@H](Cc1ccc(O)cc1)C(=O)N[C@@H](C)C(=O)N[C@@H](CCCCN)C(=O)N[C@@H](CCC(N)=O)C(=O)N[C@@H](CCSC)C(=O)N[C@@H](C)C(=O)N[C@H](C(=O)N[C@@H](C)C(=O)N[C@@H](CCCCN)C(=O)N[C@@H](Cc1ccc(O)cc1)C(=O)N[C@@H](CC(C)C)C(=O)N[C@@H](C)C(=O)N[C@@H](C)C(=O)N[C@H](C(=O)N[C@@H](CC(C)C)C(=O)NCC(=O)N[C@@H](CCCCN)C(=O)N[C@@H](CCCNC(=N)N)C(=O)N[C@@H](Cc1ccc(O)cc1)C(=O)N[C@@H](CCCCN)C(=O)N[C@@H](CCC(N)=O)C(=O)N[C@@H](CCCNC(=N)N)C(=O)N[C@H](C(=O)N[C@@H](CCCCN)C(=O)N[C@@H](CC(N)=O)C(=O)N[C@@H](CCCCN)C(N)=O)C(C)C)C(C)C)C(C)C)[C@@H](C)O [compound 6, [Ala^14,20]PACAP38] (H-HSDGIFTDSYSRYAKQMAVAKYLAAVLGKRYKQRVKNK-NH2) | >200 | 187 (≈ 42.6 µM) | 8 (≈ 1.82 µM) | >200 | 3.5 (≈ 0.797 µM) | >200 | 94 (≈ 21.4 µM) | 9 (≈ 2.05 µM) | improved metabolic stability | >200 | >200 | improved metabolic stability | >200 | 37 (≈ 8.42 µM) | 113 (≈ 25.7 µM) | >200 | >200 | 52 (≈ 11.8 µM) | >200 | >200 | MIC, Pseudomonas putida (KT2440) ([4]; CLSI microdilution, MHB, 37 °C, 20h, OD read-out, at least triplicate): 113 µg/mL (≈ 25.7 µM); MIC, Burkholderia cenocepacia (CEP0511 Gvar3b) [17]: >200 µg/mL; MIC, Staphylococcus aureus (ATCC6538#P) [18]: >200 µg/mL; MIC, Burkholderia cenocepacia (LMG18829) [19]: >200 µg/mL; MIC, Burkholderia cenocepacia (LMG19240) [20]: >200 µg/mL

— paper PMC6248945, “Antibacterial properties of the pituitary adenylate cyclase-activating polypeptide: A new human antimicrobial peptide” (PLoS ONE, 2018)
